Measured values reported in patent US20120197004A1, “NOVEL ANTI-MICROBIAL PEPTIDOMIMETIC COMPOUNDS AND METHODS TO CALCULATE ANTI-MICROBIAL ACTIVITY” (priority 2006, published 2012).
≈ marks a conversion by molar mass, not a printed value. Read-outs that look alike come from different tables or passages of the source. Where a SMILES comes first, the peptide text is derived from it. [ ]: non-standard residue; d: D form. ξ: configuration not given here. Phe(4-F) = N[C@@H](Cc1ccc(F)cc1)C(=O)O; ξTic = O=C(O)C1Cc2ccccc2CN1; ξOic = O=C(O)C1CC2CCCCC2N1

Assays:
[1] = tested on: Staphylococcus aureus Methicillin/Gentamicin/Tetracycline Resistant (ATCC 33592); details: for MIC Staphylococcus aureus ME/GM/TC resistant: Minimal Inhibitory Concentration, tested at 100-0.1 in 1% DMSO; for Minimum Inhibitory Concentration Staphylococcus aureus ME/GM/TC resistant: in vitro MIC, tested at 100, 30, 10, 3, 1, 0.3 and 0.1 μM in 1% DMSO
[2] = tested on: Mycobacterium ranae (ATCC 110); details: ATCC 110
[3] = tested on: Bacillus subtillis (ATCC 43223); details: ATCC 43223
[4] = tested on: red blood cells; details: 100 μM
[5] = tested on: F. tularensis SCHU-S4; details: in vitro MIC
[6] = tested on: Bacillus anthracis Ames; details: in vitro MIC
[7] = tested on: B. melitensis 16M; details: in vitro MIC
[8] = tested on: Plague CO92; details: in vitro MIC
[9] = in vitro; details: human, microsomes, pH 7.4
[10] = in vitro; details: monkey, microsomes, pH 7.4
[11] = in vitro; details: dog, microsomes, pH 7.4
[12] = in vitro; details: rat, microsomes, pH 7.4
[13] = in vitro; details: mouse, microsomes, pH 7.4
[14] = tested on: Salmonella typhimurium (ATCC 13311); details: ATCC 13311
[15] = tested on: red blood cells; assay: Hemolytic studies; details: concentration not given

| SMILES | MIC Staphylococcus aureus ME/GM/TC resistant [1] | Minimum Inhibitory Concentration Staphylococcus aureus ME/GM/TC resistant [1] | MIC Mycobacterium ranae [2] | Minimum Inhibitory Concentration Mycobacterium ranae [2] | MIC Bacillus Subtillis [3] | % hemolysis 100/25 μM (first value) [4] | Minimum Inhibitory Concentration F. tularensis SCHU-S4 [5] | Minimum Inhibitory Concentration B. melitensis 16M [7] | remaining at 0.25 h, 1 μM [9] | remaining at 0.25 h, 1 μM [10] | remaining at 0.5 h, 1 μM [10] | remaining at 1 h, 1 μM [10] | remaining at 0.5 h, 1 μM [11] | remaining at 1 h, 1 μM [11] | remaining at 0.25 h, 1 μM [12] | remaining at 0.5 h, 1 μM [12] | remaining at 0.5 h, 1 μM [13] | remaining at 1 h, 1 μM [13] | MIC Salmonella typhimurium [14] | remaining at 1 h, 1 μM [12] | further results |
| --- | --- | --- | --- | --- | --- | --- | --- | --- | --- | --- | --- | --- | --- | --- | --- | --- | --- | --- | --- | --- | --- |
| CC(C)C[C@H](NC(=O)[C@@H](N)CCCCN)C(=O)N1Cc2ccccc2CC1C(=O)N1C(C(=O)N[C@@H](CCCCN)C(=O)N2Cc3ccccc3CC2C(=O)N2C(C(=O)N[C@@H](Cc3ccccc3)C(=O)N3Cc4ccccc4CC3C(=O)N3C(C(=O)N[C@@H](CCCCN)C(=O)N4Cc5ccccc5CC4C(=O)N4C(C(=O)N[C@@H](Cc5ccccc5)C(=O)N5Cc6ccccc6CC5C(=O)N5C(C(=O)N[C@@H](CCCCN)C(=O)N6Cc7ccccc7CC6C(=O)N6C(C(=O)N[C@@H](CCCCN)C(=O)N[C@@H](CCCNC(=N)N)C(N)=O)CC7CCCCC76)CC6CCCCC65)CC5CCCCC54)CC4CCCCC43)CC3CCCCC32)CC2CCCCC21 (stereo partly drawn) [FKAB-1F, NH2-KL-Tic-Oic-K-Tic-Oic-F-Tic-Oic-K-Tic-Oic-F-Tic-Oic-K-Tic-Oic-KR-CONH2] (H-KL[ξTic][ξOic]K[ξTic][ξOic]F[ξTic][ξOic]K[ξTic][ξOic]F[ξTic][ξOic]K[ξTic][ξOic]KR-NH2) | 10.00 µM (≈ 30.8 µg/mL) | 10 µM | 30.00 µM (≈ 92.5 µg/mL) | 30 µM | 1.00 µM (≈ 3.08 µg/mL) | 63% | >500 µg/mL | >500 µg/mL | 99% | 28% | 29% | 9% | 27% | 8% | 113% | 120% | 45% | 22% |  |  | Minimum Inhibitory Concentration Bacillus anthracis Ames ([6]; listed as 24): 0.98 µg/mL; Minimum Inhibitory Concentration Plague CO92 ([8]; listed as 24): >500 µg/mL |
| CC(=O)NCC(=O)N[C@@H](Cc1ccc(F)cc1)C(=O)N1Cc2ccccc2CC1C(=O)N1C(C(=O)NCC(=O)N[C@@H](CCCCN)C(=O)N2Cc3ccccc3CC2C(=O)N2C(C(=O)NCC(=O)N[C@@H](Cc3ccc(F)cc3)C(=O)N3Cc4ccccc4CC3C(=O)N3C(C(=O)NCC(=O)N[C@@H](CCCCN)C(=O)N4Cc5ccccc5CC4C(=O)N[C@@H](CCCCN)C(=O)N[C@@H](CCCCN)C(=O)N[C@@H](CCCCN)C(=O)N[C@@H](CCCCN)C(N)=O)CC4CCCCC43)CC3CCCCC32)CC2CCCCC21 (stereo partly drawn) [FKAB-1Go, Ac-G-Fpa-Tic-Oic-GK-Tic-Oic-G-Fpa-Tic-Oic-GK-Tic-KKKK-CONH2] (Ac-G[Phe(4-F)][ξTic][ξOic]GK[ξTic][ξOic]G[Phe(4-F)][ξTic][ξOic]GK[ξTic]KKKK-NH2) | 10.00 µM (≈ 24.8 µg/mL) | 10 µM | 3.00 µM (≈ 7.43 µg/mL) | 3 µM | 0.30 µM (≈ 0.743 µg/mL) |  | 250 µg/mL | >500 µg/mL | 103% | 57% | 65% | 94% | 54% | 59% | 74% | 57% | 26% | 22% | 30 µM (≈ 74.3 µg/mL) | 75% | Minimum Inhibitory Concentration Salmonella typhimurium [14]: 30 µM; Minimum Inhibitory Concentration Bacillus subtillis [3]: 0.3 µM; Minimum Inhibitory Concentration Bacillus anthracis Ames ([6]; listed as 44): 0.98 µg/mL; Minimum Inhibitory Concentration Plague CO92 ([8]; listed as 44): 31.25 µg/mL; remaining at 0.25 h, 1 μM [13]: 81% |
| CC(=O)NCC(=O)N[C@@H](Cc1ccccc1)C(=O)N1Cc2ccccc2CC1C(=O)N1C(C(=O)NCC(=O)N[C@@H](CCCCN)C(=O)N2Cc3ccccc3CC2C(=O)N2C(C(=O)NCC(=O)N[C@@H](Cc3ccccc3)C(=O)N3Cc4ccccc4CC3C(=O)N3C(C(=O)NCC(=O)N[C@@H](CCCCN)C(=O)N4Cc5ccccc5CC4C(=O)N[C@@H](CCCCN)C(=O)N[C@@H](CCCCN)C(=O)N[C@@H](CCCCN)C(=O)N[C@@H](CCCCN)C(N)=O)CC4CCCCC43)CC3CCCCC32)CC2CCCCC21 (stereo partly drawn) [FKAB-1G, Ac-GF-Tic-Oic-GK-Tic-Oic-GF-Tic-Oic-GK-Tic-KKKK-CONH2] (Ac-GF[ξTic][ξOic]GK[ξTic][ξOic]GF[ξTic][ξOic]GK[ξTic]KKKK-NH2) | 3.00 µM (≈ 7.32 µg/mL) | 3 µM | 10.00 µM (≈ 24.4 µg/mL) |  | 1.00 µM (≈ 2.44 µg/mL) | 14% |  |  |  | 55% | 73% | 91% | 50% | 63% | 71% | 79% | 10% | 12% | 10 µM (≈ 24.4 µg/mL) | 90% | remaining at 0.25 h, 1 μM [13]: 80%; % hemolysis / Hemolytic activity [15]: 14%; % hemolysis / Hemolytic activity ([15]; listed as 25): 14% |
